These results are taken from the OligoGym collection.

HELM strings list units from the 5' end as sugar, base in round brackets, then linkage (d deoxyribose, r ribose, m 2'-O-methyl, p phosphodiester). Strings are as the collection lists them, not checked against the first reports. ss, as = sense and antisense strand; [lna] = locked nucleic acid (LNA); [hna] = hexitol nucleic acid; [s4r] = 4'-thioribose; [fl2r] = 2'-fluoro
Also: test system not given here.

The conditions of the series: siRNA.
Regarding “RNA1{r(A)p.r(U)p.r(C)p.r(G)p.r(U)p.r(C)p.r(G)p.r(U)p.r(C)p.r(A)p.r(G)p.r(G)p.r(G)p.m(U)p.r(A)p.r(A)p.r(G)p.r(G)p.r(U)p.r(T)p.r(T)}|RNA2{r(A)p.r(C)p.r(C)p.r(U)p.m(U)p.r(A)p.r(C)p.r(C)p.r(C)p.r(U)p.r(G)p.r(A)p.r(C)p.r(G)p.r(A)p.r(C)p.r(G)p.r(A)p.r(U)p.r(T)p.r(T)}$$$RNA1{StrandType:ss}|RNA2{StrandType:as}$”, the target mRNA knockdown was found to be 49%.
Next, “RNA1{r(G)p.r(A)p.r(A)p.r(G)p.r(G)p.r(G)p.r(G)p.r(A)p.r(A)p.r(A)p.r(U)p.r(C)p.m(U)p.m(G)p.m(U)p.m(G)p.r(G)p.r(U)p.r(U)p.r(T)p.r(T)}|RNA2{r(A)p.r(A)p.r(C)p.m(C)p.m(A)p.m(C)p.m(A)p.r(G)p.r(A)p.r(U)p.r(U)p.r(U)p.r(C)p.r(C)p.r(C)p.r(C)p.r(U)p.r(U)p.r(C)p.r(T)p.r(T)}$$$RNA1{StrandType:ss}|RNA2{StrandType:as}$”: 61%.
Turning to “RNA1{r(A)p.r(A)p.r(A)p.r(G)p.r(C)p.r(G)p.r(G)p.m(U)p.m(G)p.r(G)p.r(A)p.r(U)p.m(C)p.r(A)p.r(G)p.r(C)p.r(U)p.r(C)p.r(U)p.r(T)p.r(T)}|RNA2{r(A)p.r(G)p.r(A)p.r(G)p.r(C)p.m(U)p.r(G)p.r(A)p.r(U)p.r(C)p.m(C)p.m(A)p.r(C)p.r(C)p.r(G)p.r(C)p.r(U)p.r(U)p.r(U)p.r(T)p.r(T)}$$$RNA1{StrandType:ss}|RNA2{StrandType:as}$”, the target mRNA knockdown came to 63%.
“RNA1{r(C)p.m(C)p.r(C)p.m(C)p.r(A)p.m(G)p.r(G)p.m(U)p.r(A)p.m(A)p.r(C)p.m(G)p.r(A)p.r(U)p.r(U)p.m(U)p.r(U)p.r(C)p.r(U)p.r(T)p.r(T)}|RNA2{r(A)p.r(G)p.r(A)p.r(A)p.r(A)p.r(A)p.r(U)p.m(C)p.r(G)p.r(U)p.r(U)p.r(A)p.m(C)p.m(C)p.r(U)p.r(G)p.r(G)p.r(G)p.r(G)p.r(T)p.r(T)}$$$RNA1{StrandType:ss}|RNA2{StrandType:as}$” registered a target mRNA knockdown of 69%.
The substance “RNA1{[s4r](C)p.[s4r](G)p.[s4r](U)p.[s4r](A)p.r(C)p.r(G)p.r(C)p.r(G)p.r(G)p.r(A)p.r(A)p.r(U)p.r(A)p.r(C)p.r(U)p.[s4r](U)p.[s4r](C)p.[s4r](G)p.[s4r](A)p.r(T)p.r(T)}|RNA2{r(U)p.r(C)p.r(G)p.r(A)p.r(A)p.r(G)p.r(U)p.r(A)p.r(U)p.r(U)p.r(C)p.r(C)p.r(G)p.r(C)p.r(G)p.r(U)p.r(A)p.[s4r](C)p.[s4r](G)p.r(T)p.r(T)}$$$RNA1{StrandType:ss}|RNA2{StrandType:as}$” returned a target mRNA knockdown of 92%.
Turning to “RNA1{[fl2r](A)p.r(A)p.[fl2r](G)p.r(U)p.[fl2r](A)p.r(G)p.[fl2r](U)p.r(C)p.[fl2r](C)p.r(C)p.[fl2r](C)p.r(C)p.[fl2r](U)p.r(U)p.[fl2r](G)p.r(A)p.[fl2r](A)p.r(G)p.r(A)p.r(T)p.r(T)}|RNA2{r(U)p.r(C)p.r(U)p.r(U)p.r(C)p.r(A)p.r(A)p.r(G)p.r(G)p.r(G)p.r(G)p.r(G)p.r(A)p.r(C)p.r(U)p.r(A)p.r(C)p.r(U)p.r(U)p.r(T)p.r(T)}$$$RNA1{StrandType:ss}|RNA2{StrandType:as}$”, the target mRNA knockdown was found to be 53%.
Substance “RNA1{r(C)p.r(U)p.r(C)p.r(C)p.r(C)p.r(C)p.r(A)p.r(G)p.r(U)p.r(C)p.r(U)p.r(C)p.r(U)p.r(C)p.r(U)p.r(U)p.m(A)p.r(A)p.r(A)p.r(T)p.r(T)}|RNA2{r(U)p.r(U)p.r(U)p.m(A)p.r(A)p.r(G)p.r(A)p.r(G)p.r(A)p.r(G)p.r(A)p.r(C)p.r(U)p.r(G)p.r(G)p.r(G)p.r(G)p.r(A)p.r(G)p.r(T)p.r(T)}$$$RNA1{StrandType:ss}|RNA2{StrandType:as}$” registered a target mRNA knockdown of 69%.
For “RNA1{r(G)p.r(C)p.r(A)p.r(G)p.r(C)p.r(A)p.r(C)p.r(G)p.r(A)p.r(C)p.r(U)p.r(U)p.r(C)p.r(U)p.r(U)p.r(C)p.r(A)p.r(A)p.r(G)p.r(T)p.r(T)}|RNA2{m(C)p.m(U)p.m(U)p.m(G)p.m(A)p.m(A)p.m(G)p.m(A)p.m(A)p.m(G)p.m(U)p.m(C)p.m(G)p.m(U)p.m(G)p.m(C)p.m(U)p.m(G)p.m(C)p.r(T)p.r(T)}$$$RNA1{StrandType:ss}|RNA2{StrandType:as}$”, the target mRNA knockdown stood at 16%.
Take “RNA1{r(G)p.r(U)p.r(U)p.[fl2r](C)p.r(A)p.r(C)p.r(G)p.r(U)p.r(C)p.r(C)p.[fl2r](U)p.r(A)p.r(C)p.r(C)p.r(C)p.r(C)p.r(U)p.r(U)p.r(U)p.r(T)p.r(T)}|RNA2{r(A)p.r(A)p.r(A)p.r(G)p.r(G)p.r(G)p.r(G)p.[fl2r](U)p.r(A)p.r(G)p.r(G)p.r(A)p.r(C)p.r(G)p.[fl2r](U)p.r(G)p.r(A)p.r(A)p.r(C)p.r(T)p.r(T)}$$$RNA1{StrandType:ss}|RNA2{StrandType:as}$”: the target mRNA knockdown amounted to 65%.
Next, “RNA1{m(A)p.r(A)p.m(G)p.r(G)p.m(C)p.r(A)p.m(U)p.r(G)p.m(C)p.r(U)p.m(U)p.r(C)p.m(G)p.r(G)p.m(A)p.r(A)p.m(A)p.r(C)p.m(U)p.r(T)p.r(T)}|RNA2{r(A)p.m(G)p.r(U)p.r(U)p.r(U)p.r(C)p.r(C)p.r(G)p.r(A)p.r(A)p.m(G)p.r(C)p.r(A)p.r(U)p.m(G)p.r(C)p.r(C)p.r(U)p.r(U)p.r(T)p.r(T)}$$$RNA1{StrandType:ss}|RNA2{StrandType:as}$”: 60%; “RNA1{r(A)p.r(A)p.r(A)p.r(C)p.r(A)p.r(U)p.r(G)p.r(C)p.r(A)p.r(G)p.r(A)p.r(A)p.r(A)p.r(A)p.r(U)p.r(G)p.r(C)p.r(U)p.r(G)p.r(T)p.r(T)}|RNA2{[s4r](C)p.[s4r](A)p.r(G)p.r(C)p.r(A)p.r(U)p.r(U)p.r(U)p.r(U)p.r(C)p.r(U)p.r(G)p.r(C)p.r(A)p.r(U)p.r(G)p.r(U)p.[s4r](U)p.[s4r](U)p.r(T)p.r(T)}$$$RNA1{StrandType:ss}|RNA2{StrandType:as}$”: 42.5%.
Next, “RNA1{r(A)p.r(G)p.r(C)p.r(U)p.r(C)p.r(U)p.r(U)p.m(U)p.r(G)p.r(U)p.m(C)p.r(A)p.r(C)p.m(C)p.r(U)p.m(C)p.r(U)p.r(C)p.r(U)p.r(T)p.r(T)}|RNA2{r(A)p.r(G)p.r(A)p.r(G)p.r(A)p.r(G)p.r(G)p.m(U)p.r(G)p.r(A)p.m(C)p.r(A)p.r(A)p.r(A)p.r(G)p.r(A)p.r(G)p.r(C)p.r(U)p.r(T)p.r(T)}$$$RNA1{StrandType:ss}|RNA2{StrandType:as}$”: 34%; “RNA1{r(A)p.r(U)p.r(C)p.r(U)p.r(G)p.r(A)p.r(A)p.r(G)p.r(A)p.r(A)p.r(G)p.r(G)p.r(A)p.r(G)p.r(A)p.r(A)p.r(A)p.r(A)p.r(A)p.[lna](T)p.[lna](T)}|RNA2{r(U)p.r(U)p.r(U)p.r(U)p.r(U)p.r(C)p.r(U)p.r(C)p.r(C)p.r(U)p.r(U)p.r(C)p.r(U)p.r(U)p.r(C)p.r(A)p.r(G)p.r(A)p.r(U)p.[lna](T)p.[lna](T)}$$$RNA1{StrandType:ss}|RNA2{StrandType:as}$”: 93%; “RNA1{r(G)p.r(G)p.r(C)p.r(G)p.r(G)p.r(G)p.r(C)p.r(U)p.r(C)p.r(U)p.r(U)p.r(U)p.r(C)p.r(C)p.m(U)p.r(A)p.r(U)p.r(U)p.r(C)p.r(T)p.r(T)}|RNA2{r(G)p.r(A)p.r(A)p.m(U)p.r(A)p.r(G)p.r(G)p.r(A)p.r(A)p.r(A)p.r(G)p.r(A)p.r(G)p.r(C)p.r(C)p.r(C)p.r(G)p.r(C)p.r(C)p.r(T)p.r(T)}$$$RNA1{StrandType:ss}|RNA2{StrandType:as}$”: 69%.
Next, “RNA1{r(G)p.r(G)p.r(A)p.r(A)p.r(G)p.r(A)p.r(A)p.r(G)p.r(A)p.[fl2r](U)p.r(A)p.r(G)p.r(A)p.r(G)p.[fl2r](C)p.r(A)p.r(U)p.r(C)p.r(C)p.r(T)p.r(T)}|RNA2{r(G)p.r(G)p.r(A)p.[fl2r](U)p.r(G)p.r(C)p.r(U)p.r(C)p.[fl2r](U)p.r(A)p.r(U)p.r(C)p.r(U)p.r(U)p.r(C)p.r(U)p.r(U)p.r(C)p.r(C)p.r(T)p.r(T)}$$$RNA1{StrandType:ss}|RNA2{StrandType:as}$”: 37%; “RNA1{m(G)p.r(A)p.m(A)p.r(A)p.m(A)p.r(C)p.m(G)p.r(C)p.m(U)p.r(U)p.m(G)p.r(U)p.m(A)p.r(A)p.m(A)p.r(G)p.m(C)p.r(C)p.m(G)p.r(T)p.r(T)}|RNA2{r(C)p.r(G)p.r(G)p.r(C)p.r(U)p.r(U)p.r(U)p.m(A)p.r(C)p.m(A)p.m(A)p.r(G)p.r(C)p.r(G)p.r(U)p.r(U)p.r(U)p.r(U)p.r(C)p.r(T)p.r(T)}$$$RNA1{StrandType:ss}|RNA2{StrandType:as}$”: 23%; “RNA1{m(G)p.r(G)p.m(G)p.r(A)p.m(G)p.r(G)p.m(U)p.r(C)p.m(U)p.r(U)p.m(A)p.r(G)p.m(A)p.r(A)p.m(A)p.r(A)p.m(C)p.r(A)p.m(C)p.r(T)p.r(T)}|RNA2{r(G)p.r(U)p.r(G)p.r(U)p.r(U)p.r(U)p.r(U)p.r(C)p.r(U)p.r(A)p.r(A)p.r(G)p.r(A)p.r(C)p.r(C)p.r(U)p.r(C)p.r(C)p.r(C)p.r(T)p.r(T)}$$$RNA1{StrandType:ss}|RNA2{StrandType:as}$”: 17%.
For the substance “RNA1{r(C)p.[fl2r](U)p.r(A)p.[fl2r](A)p.r(G)p.[fl2r](C)p.r(C)p.[fl2r](U)p.r(G)p.[fl2r](U)p.r(U)p.[fl2r](U)p.r(C)p.[fl2r](U)p.r(U)p.[fl2r](C)p.r(C)p.[fl2r](U)p.r(C)p.r(T)p.r(T)}|RNA2{r(G)p.[fl2r](A)p.r(G)p.r(G)p.[fl2r](A)p.[fl2r](A)p.r(G)p.[fl2r](A)p.[fl2r](A)p.[fl2r](A)p.r(C)p.[fl2r](A)p.r(G)p.r(G)p.r(C)p.r(U)p.r(U)p.[fl2r](A)p.r(G)p.r(T)p.r(T)}$$$RNA1{StrandType:ss}|RNA2{StrandType:as}$”, the target mRNA knockdown stood at 75%.
Substance “RNA1{r(G)p.r(A)p.r(C)p.r(G)p.[hna](U)p.r(A)p.r(A)p.[hna](A)p.r(C)p.r(G)p.[hna](G)p.r(C)p.r(C)p.[hna](A)p.r(C)p.r(A)p.r(A)p.r(G)p.[hna](U)p.r(U)p.d(T)}|RNA2{r(A)p.[hna](C)p.r(U)p.r(U)p.r(G)p.r(U)p.r(G)p.r(G)p.[hna](C)p.r(C)p.r(G)p.r(U)p.r(U)p.r(U)p.r(A)p.r(C)p.r(G)p.[hna](U)p.[hna](C)p.[hna](G)p.d(T)}$$$RNA1{StrandType:ss}|RNA2{StrandType:as}$” had a target mRNA knockdown of 0%.
